Test results published in patent US12662491B2 (Redona Therapeutics, Inc., priority 2020, dated 2026).
Like-named read-outs stand apart in the source and are kept apart here.

Target: T1, Zcchc11 enzyme (Homo sapiens, UniProt Q5TAX3)
T1 construct: made in house; host or cells: HEK293 cells (Zcchc11); E. coli Rosetta II (LIN28A)
T1 sequence (Q5TAX3 212-1420): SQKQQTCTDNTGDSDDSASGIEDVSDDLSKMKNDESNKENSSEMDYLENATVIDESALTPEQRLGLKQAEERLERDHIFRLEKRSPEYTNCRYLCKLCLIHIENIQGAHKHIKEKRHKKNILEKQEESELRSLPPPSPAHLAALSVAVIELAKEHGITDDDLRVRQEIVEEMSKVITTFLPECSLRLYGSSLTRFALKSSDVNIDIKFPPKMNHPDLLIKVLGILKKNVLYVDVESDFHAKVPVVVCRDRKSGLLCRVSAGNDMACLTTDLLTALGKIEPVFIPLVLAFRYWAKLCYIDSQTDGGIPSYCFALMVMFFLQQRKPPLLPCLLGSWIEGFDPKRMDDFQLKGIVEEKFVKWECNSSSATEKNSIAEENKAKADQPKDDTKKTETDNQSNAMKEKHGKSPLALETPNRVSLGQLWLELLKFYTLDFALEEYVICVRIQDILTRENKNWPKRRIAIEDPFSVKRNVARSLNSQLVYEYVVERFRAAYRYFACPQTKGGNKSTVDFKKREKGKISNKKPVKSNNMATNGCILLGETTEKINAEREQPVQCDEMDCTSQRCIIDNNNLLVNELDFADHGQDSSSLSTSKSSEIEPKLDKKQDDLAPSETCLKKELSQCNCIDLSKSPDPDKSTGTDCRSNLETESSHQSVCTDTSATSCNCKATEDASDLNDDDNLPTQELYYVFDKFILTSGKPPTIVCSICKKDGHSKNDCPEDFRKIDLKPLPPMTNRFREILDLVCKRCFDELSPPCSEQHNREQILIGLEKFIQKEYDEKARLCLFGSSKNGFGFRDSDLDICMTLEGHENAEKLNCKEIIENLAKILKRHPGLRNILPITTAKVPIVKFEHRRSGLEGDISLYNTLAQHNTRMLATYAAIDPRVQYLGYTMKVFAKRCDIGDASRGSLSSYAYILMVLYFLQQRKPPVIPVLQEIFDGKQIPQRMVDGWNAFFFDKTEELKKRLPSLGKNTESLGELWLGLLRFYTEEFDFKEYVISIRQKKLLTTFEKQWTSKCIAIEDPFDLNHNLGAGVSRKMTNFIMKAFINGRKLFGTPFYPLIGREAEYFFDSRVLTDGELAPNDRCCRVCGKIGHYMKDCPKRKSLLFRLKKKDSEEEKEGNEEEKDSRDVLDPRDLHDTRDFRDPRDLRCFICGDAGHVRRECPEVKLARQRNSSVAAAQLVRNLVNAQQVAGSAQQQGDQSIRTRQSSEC
Assay: TUTase assay (Zcchc11 assay, Lin28a-dependent polyuridylation of pre-let-7)
Format: biochemical
Details: read-out: Potency Lin28a-dep Z11 IC50
Method in brief: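 Human Zcchc11 residues 212-1420 (HEK293-expressed, MBP tag cleaved, C-terminal FLAG) at 0.2 nM, with 10 nM full-length human LIN28A and 2 nM 5′-fluorescein pre-let-7, preincubated with compound 30 min at room temperature. Reaction started with 5 uM UTP plus 4 nM 3′-rhodamine A20 quench probe; fluorescein loss read kinetically, IC50 from initial rates.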

[1] = LIN28A 10 nM, Zcchc11 0.2 nM, 5′-fluorescein pre-let-7 miRNA 2 nM, UTP 5 uM, room temperature, 30 minutes pre-incubation
[2] = Lin28a-dependent Zcchc11 (Z11) TUTase activity
[3] = Lin28a-dependent Zcchc11 (Z11) TUTase assay

IC50 [2]	IC50 [3]	SMILES	further results
		CN(C)C1CN(c2ccc(-n3cc(C(=O)O)c(=O)c4cc(Cl)c(N5CCC[C@]5(C)COc5ncccc5Cl)nc43)cn2)C1 [Example 56, 6-chloro-7-[(2R)-2-[[(3-chloropyridin-2-yl)oxy]methyl]-2-methylpyrrolidin-1-yl]-1-[6-[3-(dimethylamino)azetidin-1-yl]pyridin-3-yl]-4-oxo-1,8-naphthyridine-3-carboxylic acid]	IC50 [1]: ≤ 1000 nM
10000 to 50000 nM		O=C(O)c1cn(C2CC2)c2c(Cl)c(N3CCC[C@@H]3COc3ccccn3)c(F)cc2c1=O [Compound 91, (R)-8-chloro-1-cyclopropyl-6-fluoro-4-oxo-7-(2-((pyridin-2-yloxy)methyl)pyrrolidin-1-yl)-1,4-dihydro-quinoline-3-carboxylic acid]	
		O=C(O)c1cn(-c2ccccc2)c2cc(N3CCC[C@@H]3COc3ccccc3)c(F)cc2c1=O [Example 4, (R)-6-fluoro-4-oxo-7-(2-(phenoxymethyl)pyrrolidin-1-yl)-1-phenyl-1,4-dihydroquinoline-3-carboxylic acid]	IC50 [1]: > 50000 nM
≤ 1000 nM		CN(C)C1CN(c2ccc(-n3cc(C(=O)O)c(=O)c4cc(Cl)c(N5C6CC6C[C@@H]5COc5nc(OC6CC6)ccc5Cl)cc43)cn2)C1 (stereo partly drawn) [Compound 271, 6-chloro-7-((3R)-3-(((3-chloro-6-cycloprop-oxypyridin-2-yl)oxy)methyl)-2-azabicyclo [3.1.0]hexan-2-yl)-1-(6-(3-(dimethyl-amino)azetidin-1-yl)pyridin-3-yl)-4-oxo-1,4-dihydro-quinoline-3-carboxylic acid]	
1000 to 10000 nM		O=C(O)c1cn(C2CC2)c2cc(N3CCC[C@@H]3COc3ccccn3)c(F)cc2c1=O [Compound 87, (R)-1-cyclopropyl-6-fluoro-4-oxo-7-(2-((pyridin-2-yloxy)methyl)pyrrolidin-1-yl)-1,4-dihydro-quinoline-3-carboxylic acid]	
≤ 1000 nM		COc1ccc(Cl)c(OC[C@H]2C[C@@H]3C[C@@H]3N2c2cc3c(cc2F)c(=O)c(C(=O)O)cn3-c2ccnc(N)c2)n1 (racemic) [Compound 230, Rac-1-(2-aminopyridin-4-yl)-7-((1R,3S,5R)-3-(((3-chloro-6-methoxy-pyridin-2-yl)oxy)methyl)-2-azabicyclo [3.1.0]hexan-2-yl)-6-fluoro-4-oxo-1,4-dihydro-quinoline-3-carboxylic acid]	
	≤ 1000 nM	COc1ccc(Cl)c(OC[C@H]2CCCN2c2cc3c(cc2Cl)c(=O)c(C(=O)O)cn3-c2ccnc(N)c2)n1 [Example 644, (R)-1-(2-aminopyridin-4-yl)-6-chloro-7-(2-(((3-chloro-6-methoxypyridin-2-yl)oxy)methyl)pyrrolidin-1-yl)-4-oxo-1,4-dihydroquinoline-3-carboxylic acid]	
	≤ 1000 nM	Nc1ccc(-n2cc(C(=O)O)c(=O)c3cc(Cl)c(N4CCC[C@@H]4COc4nc(OC5CC5)ccc4Cl)cc32)cn1 [Example 647, (R)-1-(6-aminopyridin-3-yl)-6-chloro-7-(2-(((3-chloro-6-cyclopropoxy-pyridin-2-yl)oxy)methyl)pyrrolidin-1-yl)-4-oxo-1,4-dihydroquinoline-3-carboxylic acid]	
	≤ 1000 nM	CNc1cnc(-n2cc(C(=O)O)c(=O)c3cc(Cl)c(N4CCC[C@@H]4COc4ncccc4Cl)cc32)cn1 [Example 506, (R)-6-chloro-7-(2-(((3-chloropyridin-2-yl)oxy)methyl)pyrrolidin-1-yl)-1-(5-(methylamino)pyrazin-2-yl)-4-oxo-1,4-dihydroquinoline-3-carboxylic acid]	
≤ 1000 nM		Nc1ccc(-n2cc(C(=O)O)c(=O)c3cc(F)c(N4CCC[C@@H]4COc4ncccc4Cl)cc32)cn1 [Compound 317, 1-(6-Aminopyridin-3-yl)-7-[(2R)-2-[[(3-chloropyridin-2-yl)oxy]methyl]pyrrolidin-1-yl]-6-fluoro-4-oxoquinoline-3-carboxylic acid]	
≤ 1000 nM		O=C(O)c1cn(-c2ccc(O)cc2)c2c(F)c(N3CCC[C@@H]3COc3ccccn3)c(F)cc2c1=O [Compound 134, (R)-6,8-difluoro-1-(4-hydroxy-phenyl)-4-oxo-7-(2-((pyridin-2-yloxy)methyl)pyrrolidin-1-yl)-1,4-dihydro-quinoline-3-carboxylic acid]	
	1000 to 10000 nM	NC(=O)Cn1cc(C(=O)O)c(=O)c2cc(F)c(N3CCC[C@@H]3COc3ccccn3)cc21 [Example 574, (R)-1-(2-amino-2-oxoethyl)-6-fluoro-4-oxo-7-(2-((pyridin-2-yloxy)methyl)pyrrolidin-1-yl)-1,4-dihydroquinoline-3-carboxylic acid]	
	> 50000 nM	COc1cc2c(=O)c(C(=O)O)cn(-c3cnccn3)c2cc1N1CCC[C@@H]1COc1ncccc1Cl [Example 512, (R)-7-(2-(((3-chloropyridin-2-yl)oxy)methyl)pyrrolidin-1-yl)-6-methoxy-4-oxo-1-(pyrazin-2-yl)-1,4-dihydroquinoline-3-carboxylic acid]	
	≤ 1000 nM	O=C(O)c1cn(-c2ccc(CO)cc2)c2cc(N3CCC[C@@H]3COc3ccccn3)c(F)cc2c1=O [Example 372, (R)-6-fluoro-1-(4-(hydroxymethyl)phenyl)-4-oxo-7-(2-((pyridin-2-yloxy)methyl)pyrrolidin-1-yl)-1,4-dihydroquinoline-3-carboxylic acid]	
	1000 to 10000 nM	CN(C)C1CN(c2ccc(-n3cc(C(=O)O)c(=O)c4cc(F)c(N5CCC[C@H]5COc5ncccc5Cl)cc43)cn2)C1 [Example 670, (S)-7-(2-(((3-chloropyridin-2-yl)oxy)methyl)pyrrolidin-1-yl)-1-(6-(3-(dimethylamino)azetidin-1-yl)pyridin-3-yl)-6-fluoro-4-oxo-1,4-dihydroquinoline-3-carboxylic acid]	
≤ 1000 nM		O=C(O)c1cn(-c2ccc(F)c(O)c2)c2cc(N3CCC[C@@H]3COc3ncccc3Cl)c(Cl)cc2c1=O [Compound 130, (R)-6-chloro-7-(2-(((3-chloropyridin-2-yl)oxy)methyl)pyrrolidin-1-yl)-1-(4-fluoro-3-hydroxy-phenyl)-4-oxo-1,4-dihydro-quinoline-3-carboxylic acid]	
≤ 1000 nM		COc1ccc(Cl)c(OC[C@H]2CC(c3ccc(O)nc3)CN2c2cc3c(cc2Cl)c(=O)c(C(=O)O)cn3-c2ccc(N3CC(N(C)C)C3)nc2)n1 (mixture of isomers) [Compound 225, Rac-6-chloro-7-((2R)-2-(((3-chloro-6-methoxy-pyridin-2-yl)oxy)methyl)-4-(6-hydroxy-pyridin-3-yl)pyrrolidin-1-yl)-1-(6-(3-(dimethyl-amino)azetidin-1-yl)pyridin-3-yl)-4-oxo-1,4-dihydro-quinoline-3-carboxylic acid]	
	≤ 1000 nM	CN(C)C1CN(c2ccc(-n3cc(C(=O)O)c(=O)c4cc(Cl)c(N5CCC[C@@H]5COc5nc6nc[nH]c6cc5Cl)cc43)cn2)C1 [Example 652, (R)-6-chloro-7-(2-(((6-chloro-3H-imidazo[4,5-b]pyridin-5-yl)oxy)methyl)pyrrolidin-1-yl)-1-(6-(3-(dimethylamino)azetidin-1-yl)pyridin-3-yl)-4-oxo-1,4-dihydroquinoline-3-carboxylic acid]	
≤ 1000 nM		Nc1ccc(-n2cc(C(=O)O)c(=O)c3cc(Cl)c(N4CC(c5ccccn5)C[C@@H]4COc4ncccc4Cl)cc32)cn1 (mixture of isomers) [Compound 180, rac-1-(6-aminopyridin-3-yl)-6-chloro-7-((2R)-2-(((3-chloropyridin-2-yl)oxy)methyl)-4-(pyridin-2-yl)pyrrolidin-1-yl)-4-oxo-1,4-dihydro-quinoline-3-carboxylic acid]	
	1000 to 10000 nM	CN1CCC(n2cc(C(=O)O)c(=O)c3cc(Cl)c(N4CCC[C@@H]4COc4ncccc4Cl)cc32)C1 (stereo partly drawn) [Example 461, 6-chloro-7-((R)-2-(((3-chloropyridin-2-yl)oxy)methyl)pyrrolidin-1-yl)-1-(1-methyl-pyrrolidin-3-yl)-4-oxo-1,4-dihydroquinoline-3-carboxylic acid]	
